Data as given in US20220387268A1, “OIL-IN-WATER MACROEMULSION” (SYMRISE AG, priority 2019, published 2022).

How the values were obtained:
[1] = water solubility; format: physicochemical; conditions: room temperature
[2] = log P value (octanol:water); format: physicochemical; conditions: water/n-octanol
Text: The partition coefficient (P) is the ratio of concentrations of a compound in a mixture of two immiscible solvents at equilibrium. This ratio is therefore a comparison of the solubility of the solute in these two liquids. In the chemical and pharmaceutical sciences, both phases usually are solvents. Most commonly, one of the solvents is water, while the second is hydrophobic such as 1-octanol.
Log P=log 10(Partition Coefficient)
Partition Coefficient,P=[organic]/[aqueous]

CCCCCC1C(=O)CCC1CC(=O)OC (stereo not shown) [HEDION]
Water solubility [1]: 401.5 µg/mL

CCC(C)(O)CCCC(C)C (stereo not shown) [TETRAHYDROLINALOOL]
log P [2]: 3.6
Water solubility [1]: 492.4 µg/mL

C=CC(C)CCCC(C)(C)O (stereo not shown) [DIHYDROMYRCENOL]
log P [2]: 3.47
Water solubility [1]: 671.2 µg/mL

CCCCCC/C(C=O)=C\c1ccccc1 [HEXYLZIMTALDEHYD ALPHA]
log P [2]: 4.82
Water solubility [1]: 1.2 µg/mL

CC(=O)OC1CCCCC1C(C)(C)C (stereo not shown) [AGRUMEX LC]
Water solubility [1]: 17.6 µg/mL

CC(C=O)Cc1ccc(C(C)C)cc1 (stereo not shown)
log P [2]: 3.91
Water solubility [1]: 17.8 µg/mL

CCCC(=O)OC(C)(C)Cc1ccccc1 [DIMETHYLBENZYLCARBINYLBUTYRAT]
log P [2]: 4.43

O=C1CCCCCCCCCCCC(=O)OCCO1 [ETHYLENBRASSYLAT]
log P [2]: 4.71
Water solubility [1]: 20.9 µg/mL

O=Cc1ccc2c(c1)OCO2 [HELIOTROPIN/PIPERONAL]
log P [2]: 1.77
Water solubility [1]: 2260.1 µg/mL

CCCCCC1CCC(=O)O1 (stereo not shown) [ALDEHYD C18 SOG.]
Water solubility [1]: 2373.1 µg/mL
